Measurements as given in patent US20210393547A1, “USE OF EMODIN IN TREATING RETINAL ISCHEMIA OR A DISEASE, CONDITION, OR DISORDER ASSOCIATED WITH RETINAL ISCHEMIA” (priority 2020, published 2021).

Tested on: retinal ischemia in Wistar rats
Experiment: ERG b-wave recording after raised-IOP retinal ischemia/reperfusion
Assay type: in vivo, rat
Conditions: for ERG b-wave ratio (treated eye to untreated fellow eye): mean±S.E.M.; for ERG b-wave amplitude: Wistar rat
Description: Emodin was purchased from Sigma-Aldrich (E7881; 90%; storage at 2-8° C.; from Frangula bark; St. Louis, Mo., United States). Drug administration for different procedures, namely ERG, fluorogold RGC labelling, cresyl violet retinal staining and Western blot assays, were described in Tables 3 to 6. Vehicle or emodin (5 μL) was administered via an intravitreous injection route so that these agents were then able to be directly diffused to the target. Emodin was dissolved in vehicle (DMSO:distilled water=1:3). The defined final cellular concentrations of administered drug were 0.25 or 0.5 μM, which were achieved after 40 times dilution from the stock concentrations, namely 10 or 20 μM, based on an arbitrary definition of the vitreous volume as 200 μL. To test a wider range of dose-response, 4 μM of emodin was thus added in the animal experiments. The Vehicle+IR and Emo+IR groups (pre-ischemic administration of emodin 4, 10 or 20 μM) were subjected to following the experimental procedures; these were initial pre-ischemic intravitreous injection (vehicle or emodin), retinal ischemia induction 1 day later, and sacrifice of the animal on the following day to allow the various post-mortem procedures except ERG. In the post-ischemic treatment group, in order to decrease the number of animals used, the present invention only used a single emodin concentration of 20 μM. Furthermore, intravitreous emodin was given 1 day after initial retinal ischemia induction and animals were sacrificed the following day to allow the performance of various post-mortem procedures as mentioned above.
The IOP procedure used raised the IOP and was designed to cause retinal ischemia in Wistar rats and simulate ischemic retinal disorders. The rats were anesthetized and constrained with a sterotaxic frame. A 30-gauge needle connected to an elevated saline bottle was attached to anterior chamber of the rat's eye. The pressure exerted by the saline inside the bottle was controlled to 120 mmHg. This procedure was conducted for 1 hour. Successful retinal ischemia induction was confirmed by observing that the whitening of the retina took place. Throughout the experiments, the animals were kept on heat mats to maintain their temperature. The sham procedure involved keeping the pressure in saline bottle 0 mmHg.
Animals were given anesthesia prior to the flash ERG measurements. For the Sham or pre-ischemic treatment group (intravitreous injection of emodin or vehicle 1 day before ischemia; Emodin+IR or Vehicle+IR), flash ERG responses were measured before the sham procedure, IR procedures or any drug administration (day 0), and one day after the sham procedure or IR procedure with pre-ischemic intravitreous injection. In the post-ischemic treatment group, ERG recordings were collected pre-ischemia (day 0), and post-ischemia (at timepoints: 1 day after ischemia; 1 day after post-ischemic intravitreous injection of emodin). Dark adaption and pupil dilation using 1% tropicamide and 2.5% phenylephrine were carried out 8 hours before the ERG measurement. The ERG recording machinery was purchased from the Grass-Telefactor Company (AstroNova, QC, Canada) and included a stimulator (PS22), a regulated power supply (RPS107), and an amplifier (P511). A strobe light (0.5 Hz), which acted as the source of stimulus, was placed 2 cm directly in front of the rat's eye. Fifteen consecutive measurements (10 kHz) were retrieved every two seconds. The amplitudes were calculated to obtain an average. To make comparisons between the various groups, the ratios of the b-wave amplitude of one eye (sham procedure or ischemic insult with defined agents) to that of the untreated fellow normal eye were analyzed.

With `Cc1cc(O)c2c(c1)C(=O)c1cc(O)cc(O)c1C2=O` [emodin, 6-methyl-1,3,8-trihydroxyanthraquinone] the “ERG b-wave ratio (treated eye to untreated fellow eye)” value (shortened to “ERG b-wave ratio”) (Emo4+IR: pre-ischemic intravitreous 4 μM emodin, n=8, Sham normalized to 1, Vehicle+IR 0.04) was 0.08±0.07, the ERG b-wave amplitude (Emo4+IR: pre-ischemic intravitreous injection of 4 μM emodin followed by IR, Sham 0.87, Vehicle+IR 0.03) was 0.07 mV and the “ERG b-wave ratio” value (Emo10+IR: pre-ischemic intravitreous 10 μM emodin, n=4, P<0.001 vs Vehicle+IR) was 0.64±0.28. The ERG b-wave amplitude (Emo10+IR: pre-ischemic intravitreous injection of 10 μM emodin followed by IR) was 0.58 mV, the “ERG b-wave ratio” value (Emo20+IR: pre-ischemic intravitreous 20 μM emodin, n=4, P<0.001 vs Vehicle+IR) was 0.99±0.18 and the ERG b-wave amplitude (Emo20+IR: pre-ischemic intravitreous injection of 20 μM emodin followed by IR) was 0.63 mV. The ERG b-wave amplitude (IR+Emo20: IR followed by post-ischemic intravitreous injection of 20 μM emodin) was 0.12 mV and the “ERG b-wave ratio” value (IR+Emo20: post-ischemic intravitreous 20 μM emodin, n=9, P<0.001 vs Vehicle+IR) was 0.24±0.09.
